# Columns and labels:
# barnyardgrass [1] = test: Test B pre-/postemergence herbicide test; type: in vivo, Echinochloa crus-galli
# In short: (§1)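 Response was scored visually 13 to 15 days after treatment against untreated greenhouse controls, 0 meaning no effect and 100 complete control. Formulations (solvent mixture plus surfactant) went onto soil after planting, onto foliage of 1- to 4-leaf plants, and onto 2-leaf plants in a flooded paddy set including rice and barnyardgrass.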
# Surinam grass = test: Test B pre-/postemergence herbicide test; type: in vivo, Urochloa decumbens
# In short: (§2)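 Plants compared with untreated controls 13–15 days post-treatment and given a visual 0–100 injury score. Applications: preemergence to seeds; postemergence at 1- to 4-leaf (2–18 cm); paddy species flooded, 2-leaf stage. Vehicle non-phytotoxic, surfactant included.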
# cocklebur = test: Test B pre-/postemergence herbicide test; type: in vivo, Xanthium strumarium
# In short: as §1
# corn = test: Test B pre-/postemergence herbicide test; type: in vivo, Zea mays
# In short: as §2
# large crabgrass = test: Test B pre-/postemergence herbicide test; type: in vivo, Digitaria sanguinalis
# In short: as §2
# giant foxtail = test: Test B pre-/postemergence herbicide test; type: in vivo, Setaria faberi
# In short: as §2
# lambsquarters = test: Test B pre-/postemergence herbicide test; type: in vivo, Chenopodium album
# In short: as §2
# morningglory = test: Test B pre-/postemergence herbicide test; type: in vivo, Ipomoea coccinea
# In short: as §1
# pigweed = test: Test B pre-/postemergence herbicide test; type: in vivo, Amaranthus retroflexus
# In short: as §2
# velvetleaf = test: Test B pre-/postemergence herbicide test; type: in vivo, Abutilon theophrasti
# In short: as §2
# blackgrass = test: Test B postemergence herbicide test; type: in vivo, Alopecurus myosuroides
# In short: (§3)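 Visual control ratings, 0–100 versus untreated controls, taken after 13 to 15 days in the greenhouse. Blackgrass received a postemergence spray at the 1- to 4-leaf stage (2–18 cm); ducksalad, umbrella sedge and barnyardgrass were flooded-paddy treated at 2 leaves.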
# wheat = test: Test B postemergence herbicide test; type: in vivo, Triticum aestivum; set-up: key to Wheat plant response rating: 0 = no effect, 100 = complete control
# In short: (§4)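 Visual ratings, 0 (no effect) to 100 (complete control), made versus controls after 13–15 d greenhouse. Paddy plants treated at 2-leaf stage; postemergence plants at 1- to 4-leaf stage, 2–18 cm tall.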
# wild oat = test: Test B postemergence herbicide test; type: in vivo, Avena fatua
# In short: as §4
# rice = test: Test B flooded paddy test; type: in vivo, Oryza sativa; details: 1000 g ai/ha, scale 0 to 100 (0 no effect, 100 complete control)
# In short: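 Formulated test chemicals went onto postemergence plants measuring 2 to 18 cm, at one to four leaves. For the paddy assay, species had reached two leaves. Scoring took place 13–15 days later by eye, relative to untreated plants, using 0 for no effect up to 100 for full control.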
# [2] = system: small flower umbrella sedge; test: Test B flooded paddy test; type: in vivo, Cyperus difformis; details: 1000 g ai/ha, scale 0 to 100 (0 no effect, 100 complete control)
# In short: as §3
# ducksalad = test: Test B flooded paddy test; type: in vivo, Heteranthera limosa; details: 1000 g ai/ha, scale 0 to 100 (0 no effect, 100 complete control)
# In short: as §3
# barnyardgrass [3] = test: Test B flooded paddy test; type: in vivo, Echinochloa crus-galli; details: 1000 g ai/ha, scale 0 to 100 (0 no effect, 100 complete control)
# In short: as §3
# [4] = 500 g ai/ha, visual rating 0-100, 0 no effect, 100 complete control, preemergence
# [5] = Postemergence, 500 g ai/ha, visual rating after 13 to 15 days, scale 0 (no effect) to 100 (complete control)
# [6] = postemergence, 125 g ai/ha, visual rating, scale 0 (no effect) to 100 (complete control)
# [7] = preemergence, 125 g ai/ha, 0 to 100 scale, 0 is no effect, 100 is complete control
# [8] = Postemergence, 250 g ai/ha, scale 0 (no effect) to 100 (complete control)
# [9] = postemergence, 62 g ai/ha, scale 0 to 100
# [10] = 125 g ai/ha, 0 is no effect, 100 is complete control, preemergence
# [11] = 125 g ai/ha, visual rating, scale 0 (no effect) to 100 (complete control), postemergence
# [12] = 500 g ai/ha, visual rating, 0 = no effect, 100 = complete control, preemergence
# [13] = postemergence, 500 g ai/ha, scale 0 to 100, 0 is no effect, 100 is complete control
# [14] = postemergence, 31 g ai/ha, scale 0 to 100
smiles,measurement,setting,value
CCON=C(C)c1cccc(NC(=O)c2cc(C(C)(C)C)nn2C)c1 [Compound 105],"Plant response rating, Barnyardgrass",barnyardgrass [1]; [4],30
same,"Plant response rating, Barnyardgrass",barnyardgrass [1]; [5],0
same,Barnyardgrass plant response rating,barnyardgrass [1]; [6],0
same,"Plant response rating, Barnyardgrass",barnyardgrass [1]; [7],0
same,"Plant response rating, Surinam Grass",Surinam grass; [4],10
same,"Plant response rating, Surinam Grass",Surinam grass; [5],10
same,Surinam Grass plant response rating,Surinam grass; [6],0
same,"Plant response rating, Surinam Grass",Surinam grass; [7],0
same,"Plant response rating, Cocklebur",cocklebur; [4],0
same,"Plant response rating, Cocklebur",cocklebur; [5],30
same,Cocklebur plant response rating,cocklebur; [6],30
same,"Plant response rating, Cocklebur",cocklebur; [7],0
same,"Plant response rating, Corn",corn; [4],0
same,"Plant response rating, Corn",corn; [5],0
same,Corn plant response rating,corn; [6],0
same,"Plant response rating, Corn",corn; [7],0
same,"Plant response rating, Crabgrass, Large",large crabgrass; [4],90
same,"Plant response rating, Crabgrass, Large",large crabgrass; [5],0
same,"Crabgrass, Large plant response rating",large crabgrass; [6],0
same,"Plant response rating, Crabgrass, Large",large crabgrass; [7],0
same,"Plant response rating, Foxtail, Giant",giant foxtail; [4],10
same,"Plant response rating, Foxtail, Giant",giant foxtail; [5],0
same,"Foxtail, Giant plant response rating",giant foxtail; [6],0
same,"Plant response rating, Foxtail, Giant",giant foxtail; [7],0
same,"Plant response rating, Lambsquarters",lambsquarters; [4],80
same,"Plant response rating, Lambsquarters",lambsquarters; [5],80
same,Lambsquarters plant response rating,lambsquarters; [6],50
same,"Plant response rating, Lambsquarters",lambsquarters; [7],0
same,"Plant response rating, Morningglory",morningglory; [4],10
same,"Plant response rating, Morningglory",morningglory; [5],10
same,Morningglory plant response rating,morningglory; [6],0
same,"Plant response rating, Morningglory",morningglory; [7],0
same,"Plant response rating, Pigweed",pigweed; [4],80
same,"Plant response rating, Pigweed",pigweed; [5],80
same,Pigweed plant response rating,pigweed; [6],0
same,"Plant response rating, Pigweed",pigweed; [7],0
same,"Plant response rating, Velvetleaf",velvetleaf; [4],0
same,"Plant response rating, Velvetleaf",velvetleaf; [5],0
same,Velvetleaf plant response rating,velvetleaf; [6],0
same,"Plant response rating, Velvetleaf",velvetleaf; [7],0
same,"Plant response rating, Blackgrass",blackgrass; [5],0
same,Blackgrass plant response rating,blackgrass; [6],0
same,"Plant response rating, Wheat",wheat; [5],0
same,Wheat plant response rating,wheat; [6],0
same,"Plant response rating, Oat, Wild",wild oat; [5],10
same,"Oat, Wild plant response rating",wild oat; [6],0
same,Rice plant response rating,"rice; visual rating, 13 to 15 days",0
same,"Sedge, Umbrella plant response rating","[2]; visual rating, 13 to 15 days",70
same,Ducksalad plant response rating,"ducksalad; visual rating, 13 to 15 days",70
same,Barnyardgrass plant response rating,"barnyardgrass [3]; visual rating, 13 to 15 days",20
CCN(CC)C(=O)c1cccc(NC(=O)c2cn(C(C)(C)C)nc2C(F)(F)F)c1 [Compound 191],Barnyardgrass plant response rating,barnyardgrass [1]; [8],10
same,Barnyardgrass plant response rating,barnyardgrass [1]; [9],0
same,Surinam Grass plant response rating,Surinam grass; [8],10
same,Surinam Grass plant response rating,Surinam grass; [9],10
same,Cocklebur plant response rating,cocklebur; [8],10
same,Cocklebur plant response rating,cocklebur; [9],0
same,Corn plant response rating,corn; [8],10
same,Corn plant response rating,corn; [9],10
same,"Crabgrass, Large plant response rating",large crabgrass; [8],20
same,"Crabgrass, Large plant response rating",large crabgrass; [9],20
same,"Foxtail, Giant plant response rating",giant foxtail; [8],20
same,"Foxtail, Giant plant response rating",giant foxtail; [9],10
same,Lambsquarters plant response rating,lambsquarters; [8],80
same,Lambsquarters plant response rating,lambsquarters; [9],60
same,Morningglory plant response rating,morningglory; [8],90
same,Morningglory plant response rating,morningglory; [9],40
same,Pigweed plant response rating,pigweed; [8],70
same,Pigweed plant response rating,pigweed; [9],30
same,Velvetleaf plant response rating,velvetleaf; [8],20
same,Velvetleaf plant response rating,velvetleaf; [9],10
same,Blackgrass plant response rating,blackgrass; [8],10
same,Blackgrass plant response rating,blackgrass; [9],0
same,Wheat plant response rating,"wheat; 250 g ai/ha, scale 0 to 100, 0 no effect, 100 complete control, preemergence",0
same,Wheat plant response rating,wheat; [8],0
same,Wheat plant response rating,wheat; [9],0
same,"Oat, Wild plant response rating",wild oat; [8],20
same,"Oat, Wild plant response rating",wild oat; [9],10
same,Rice plant response rating,"rice; visual rating, 13 to 15 days",0
same,"Sedge, Umbrella plant response rating","[2]; visual rating, 13 to 15 days",90
same,Ducksalad plant response rating,"ducksalad; visual rating, 13 to 15 days",20
same,Barnyardgrass plant response rating,"barnyardgrass [3]; visual rating, 13 to 15 days",20
CCNC(=O)c1ccc(F)c(NC(=O)c2cn(C(C)(C)C)nc2C)c1 [Compound 345],"Plant response rating (0 to 100 scale), Barnyardgrass",barnyardgrass [1]; [10],20
same,Barnyardgrass plant response rating,barnyardgrass [1]; [11],0
same,"Plant response rating, Barnyardgrass",barnyardgrass [1]; [12],30
same,Barnyardgrass plant response rating,barnyardgrass [1]; [13],0
same,"Plant response rating (0 to 100 scale), Surinam Grass",Surinam grass; [10],20
same,Surinam Grass plant response rating,Surinam grass; [11],0
same,"Plant response rating, Surinam Grass",Surinam grass; [12],70
same,Surinam Grass plant response rating,Surinam grass; [13],0
same,"Plant response rating (0 to 100 scale), Cocklebur",cocklebur; [10],0
same,Cocklebur plant response rating,cocklebur; [11],0
same,"Plant response rating, Cocklebur",cocklebur; [12],10
same,Cocklebur plant response rating,cocklebur; [13],0
same,"Plant response rating (0 to 100 scale), Corn",corn; [10],0
same,Corn plant response rating,corn; [11],0
same,"Plant response rating, Corn",corn; [12],10
same,Corn plant response rating,corn; [13],0
same,"Plant response rating (0 to 100 scale), Crabgrass, Large",large crabgrass; [10],30
same,"Crabgrass, Large plant response rating",large crabgrass; [11],0
same,"Plant response rating, Crabgrass, Large",large crabgrass; [12],90
same,"Crabgrass, Large plant response rating",large crabgrass; [13],0
same,"Plant response rating (0 to 100 scale), Foxtail, Giant",giant foxtail; [10],10
same,"Foxtail, Giant plant response rating",giant foxtail; [11],0
same,"Plant response rating, Foxtail, Giant",giant foxtail; [12],30
same,"Foxtail, Giant plant response rating",giant foxtail; [13],0
same,"Plant response rating (0 to 100 scale), Lambsquarters",lambsquarters; [10],70
same,Lambsquarters plant response rating,lambsquarters; [11],20
same,"Plant response rating, Lambsquarters",lambsquarters; [12],100
same,Lambsquarters plant response rating,lambsquarters; [13],20
same,"Plant response rating (0 to 100 scale), Morningglory",morningglory; [10],20
same,Morningglory plant response rating,morningglory; [11],10
same,"Plant response rating, Morningglory",morningglory; [12],50
same,Morningglory plant response rating,morningglory; [13],10
same,"Plant response rating (0 to 100 scale), Pigweed",pigweed; [10],60
same,Pigweed plant response rating,pigweed; [11],20
same,"Plant response rating, Pigweed",pigweed; [12],100
same,Pigweed plant response rating,pigweed; [13],20
same,"Plant response rating (0 to 100 scale), Velvetleaf",velvetleaf; [10],30
same,Velvetleaf plant response rating,velvetleaf; [11],10
same,Velvetleaf plant response rating,velvetleaf; [13],10
same,Blackgrass plant response rating,blackgrass; [11],0
same,Blackgrass plant response rating,blackgrass; [13],0
same,Wheat plant response rating,wheat; [11],0
same,Wheat plant response rating,wheat; [13],0
same,"Oat, Wild plant response rating",wild oat; [11],0
same,"Oat, Wild plant response rating",wild oat; [13],10
same,Rice plant response rating,rice,40
same,"Sedge, Umbrella plant response rating",[2],80
same,Ducksalad plant response rating,ducksalad,70
same,Barnyardgrass plant response rating,barnyardgrass [3],30
CCOC(=O)c1ccc(F)c(NC(=S)c2cc(C(C)(C)C)nn2CC)c1 [Compound 346],"Plant response rating (0 to 100 scale), Barnyardgrass",barnyardgrass [1]; [10],0
same,Barnyardgrass plant response rating,barnyardgrass [1]; [11],20
same,Barnyardgrass plant response rating,barnyardgrass [1]; [14],0
same,"Plant response rating (0 to 100 scale), Surinam Grass",Surinam grass; [10],10
same,Surinam Grass plant response rating,Surinam grass; [11],10
same,Surinam Grass plant response rating,Surinam grass; [14],0
same,"Plant response rating (0 to 100 scale), Cocklebur",cocklebur; [10],0
same,Cocklebur plant response rating,cocklebur; [11],30
same,Cocklebur plant response rating,cocklebur; [14],10
same,"Plant response rating (0 to 100 scale), Corn",corn; [10],0
same,Corn plant response rating,corn; [11],0
same,Corn plant response rating,corn; [14],0
same,"Plant response rating (0 to 100 scale), Crabgrass, Large",large crabgrass; [10],60
same,"Crabgrass, Large plant response rating",large crabgrass; [11],0
same,"Crabgrass, Large plant response rating",large crabgrass; [14],0
same,"Plant response rating (0 to 100 scale), Foxtail, Giant",giant foxtail; [10],50
same,"Foxtail, Giant plant response rating",giant foxtail; [11],20
same,"Foxtail, Giant plant response rating",giant foxtail; [14],0
same,"Plant response rating (0 to 100 scale), Lambsquarters",lambsquarters; [10],0
same,Lambsquarters plant response rating,lambsquarters; [11],30
same,Lambsquarters plant response rating,lambsquarters; [14],0
same,"Plant response rating (0 to 100 scale), Morningglory",morningglory; [10],0
same,Morningglory plant response rating,morningglory; [11],10
same,Morningglory plant response rating,morningglory; [14],0
same,"Plant response rating (0 to 100 scale), Pigweed",pigweed; [10],0
same,Pigweed plant response rating,pigweed; [11],70
same,Pigweed plant response rating,pigweed; [14],60
same,"Plant response rating (0 to 100 scale), Velvetleaf",velvetleaf; [10],0
same,Velvetleaf plant response rating,velvetleaf; [11],10
same,Velvetleaf plant response rating,velvetleaf; [14],0
same,Blackgrass plant response rating,blackgrass; [11],40
same,Blackgrass plant response rating,blackgrass; [14],30
same,Wheat plant response rating,wheat; [11],20
same,Wheat plant response rating,wheat; [14],10
same,"Oat, Wild plant response rating",wild oat; [11],40
same,"Oat, Wild plant response rating",wild oat; [14],30
same,Rice plant response rating,rice,40
same,"Sedge, Umbrella plant response rating",[2],80
same,Ducksalad plant response rating,ducksalad,60
same,Barnyardgrass plant response rating,barnyardgrass [3],40
